# pIC50: −log10 of the molar value. Structures can show the parent of a compound that is named as a salt.
# Biological target: ROCK2 (Homo sapiens (Human), UniProt O75116)
# Experiment: biochemical
# 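Further: rho kinase enzyme reaction halted with EDTA, phospho- and non-phospho peptide separated for read-out, kinase activity inhibition derived across a dose-response series, DMSO under 2%.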
# ROCK2, sequence (O75116 whole entry, species assumed): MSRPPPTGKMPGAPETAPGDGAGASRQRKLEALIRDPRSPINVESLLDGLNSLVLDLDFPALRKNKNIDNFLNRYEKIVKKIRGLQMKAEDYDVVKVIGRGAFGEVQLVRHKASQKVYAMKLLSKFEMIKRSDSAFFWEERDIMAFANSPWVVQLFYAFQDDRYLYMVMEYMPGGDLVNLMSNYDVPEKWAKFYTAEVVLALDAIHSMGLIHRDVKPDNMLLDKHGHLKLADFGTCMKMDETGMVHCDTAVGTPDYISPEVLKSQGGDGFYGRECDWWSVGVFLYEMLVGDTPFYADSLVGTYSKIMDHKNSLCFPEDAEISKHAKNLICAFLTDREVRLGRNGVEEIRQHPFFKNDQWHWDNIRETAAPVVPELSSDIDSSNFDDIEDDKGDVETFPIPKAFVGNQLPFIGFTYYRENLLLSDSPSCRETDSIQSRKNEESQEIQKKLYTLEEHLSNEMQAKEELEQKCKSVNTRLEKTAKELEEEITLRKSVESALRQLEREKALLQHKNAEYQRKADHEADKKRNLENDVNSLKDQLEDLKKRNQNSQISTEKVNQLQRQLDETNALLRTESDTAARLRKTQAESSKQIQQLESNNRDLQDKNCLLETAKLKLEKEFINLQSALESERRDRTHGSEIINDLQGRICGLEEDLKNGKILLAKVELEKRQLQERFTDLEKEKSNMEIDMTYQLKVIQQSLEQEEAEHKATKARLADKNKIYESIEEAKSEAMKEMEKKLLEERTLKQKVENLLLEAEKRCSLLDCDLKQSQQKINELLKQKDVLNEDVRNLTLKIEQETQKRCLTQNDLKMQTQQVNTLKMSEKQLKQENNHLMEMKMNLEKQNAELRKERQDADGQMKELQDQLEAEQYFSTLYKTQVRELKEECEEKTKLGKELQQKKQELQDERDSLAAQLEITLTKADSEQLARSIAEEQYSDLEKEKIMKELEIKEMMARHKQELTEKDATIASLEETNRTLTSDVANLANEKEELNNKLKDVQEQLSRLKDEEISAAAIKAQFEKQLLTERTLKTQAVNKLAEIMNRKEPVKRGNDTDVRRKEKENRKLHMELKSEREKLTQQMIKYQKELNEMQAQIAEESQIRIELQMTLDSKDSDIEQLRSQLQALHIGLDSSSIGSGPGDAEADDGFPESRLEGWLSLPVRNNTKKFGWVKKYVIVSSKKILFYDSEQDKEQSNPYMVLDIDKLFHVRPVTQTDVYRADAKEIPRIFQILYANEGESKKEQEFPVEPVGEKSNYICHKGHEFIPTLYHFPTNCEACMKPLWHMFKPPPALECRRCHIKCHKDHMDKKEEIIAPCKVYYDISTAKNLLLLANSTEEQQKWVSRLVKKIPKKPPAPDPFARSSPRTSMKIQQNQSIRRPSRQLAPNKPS
row,SMILES,pIC50
1,"COc1cc(F)cc(NC2CCN(c3ccc(-c4cn[nH]c4)cc3F)C2=O)c1 (single isomer, unassigned) [Example 338, 1-(2-fluoro-4-(1H-pyrazol-4-yl)phenyl)-3-((3-fluoro-5-methoxyphenyl)amino) pyrrolidin-2-one]",7.00 to 8.00
2,"COc1nc(N2CCC(Nc3cccc(OCC4CC4)c3)C2=O)ccc1-c1cn[nH]c1 (racemic) [Example 205, 3-((3-(cyclopropylmethoxy)phenyl)amino)-1-(6-methoxy-5-(1H-pyrazol-4-yl)pyridin-2-yl)pyrrolidin-2-one]",> 8.00
3,"COc1cccc(NC2C(=O)N(c3ccc(-c4cn[nH]c4)cc3)C[C@H]2CO)c1 (single isomer, unassigned) [Example 323]",> 8.00
4,"CCc1cc(N2CCC(Nc3cccc(OC)c3)C2=O)ccc1-c1cn[nH]c1 (single isomer, unassigned) [Example 243, 1-(3-ethyl-4-(1H-pyrazol-4-yl)phenyl)-3-((3-methoxyphenyl)amino)pyrrolidin-2-one]",7.00 to 8.00
5,"O=C1[C@H](Nc2ccc3c(c2)CS(=O)(=O)C3)CCN1c1ccc(-c2cn[nH]c2)cc1 [Example 392, (R)-1-(4-(1H-pyrazol-4-yl)phenyl)-3-((2,2-dioxido-1,3-dihydrobenzo[c]thiophen-5-yl)amino)pyrrolidin-2-one]",5.66 to 7.00
6,"COc1nc(N2CCC(Nc3ccc4ncsc4c3)C2=O)ccc1-c1cn[nH]c1 (racemic) [Example 259, 3-(benzo[d]thiazol-6-ylamino)-1-(6-methoxy-5-(1H-pyrazol-4-yl)pyridin-2-yl)pyrrolidin-2-one]",> 8.00
7,"COc1nc(N2CCC(Nc3ccc4c(c3)OCCO4)C2=O)ccc1-c1cn[nH]c1 (racemic) [Example 256, 3-((2,3-dihydrobenzo[b][l,4]dioxin-6-yl)amino)-1-(6-methoxy-5-(1H-pyrazol-4-yl)pyridin-2-yl)pyrrolidin-2-one]",7.00 to 8.00
8,"O=C1C(Oc2ccccc2Cl)CCN1c1ccc(-c2cn[nH]c2)cc1 (stereo not shown) [Example 110, 1-(4-(1H-pyrazol-4-yl)phenyl)-3-(2-chlorophenoxy)pyrrolidin-2-one]",7.00 to 8.00
9,"O=C1[C@H](Nc2cccc(OCC3CC3)c2)CCN1c1ccc(-c2cn[nH]c2)cc1 (single isomer, unassigned) [Example 235, 1-(4-(1H-pyrazol-4-yl)phenyl)-3-((3-(cyclopropylmethoxy)phenyl)amino) pyrrolidin-2-one]",> 8.00
10,"COc1cccc(NC2CCN(c3ccc(-c4cn[nH]c4)nc3)C2=O)c1 (single isomer, unassigned) [Example 297, 1-(6-(1H-pyrazol-4-yl)pyridin-3-yl)-3-((3-methoxyphenyl)amino)pyrrolidin-2-one]",7.00 to 8.00
11,"CCOc1cc(N2CCC(Nc3cc(F)cc(OC)c3)C2=O)ccc1-c1cn[nH]c1 (single isomer, unassigned) [Example 37, 1-(3-ethoxy-4-(1H-pyrazol-4-yl)phenyl)-3-((3-fluoro-5-methoxyphenyl)amino)pyrrolidin-2-one]",5.66 to 7.00
12,"CCOc1cc(N2CCC(Nc3cc(OC)ccc3F)C2=O)ccc1-c1cn[nH]c1 (single isomer, unassigned) [Example 40, 1-(3-ethoxy-4-(1H-pyrazol-4-yl)phenyl)-3-((2-fluoro-5-methoxyphenyl)amino)pyrrolidin-2-one]",5.66 to 7.00
13,"COc1nc(N2CCC(Nc3cccc(C#N)c3)C2=O)ccc1-c1cn[nH]c1 (racemic) [Example 257, 3-((1-(6-methoxy-5-(1H-pyrazol-4-yl)pyridin-2-yl)-2-oxopyrrolidin-3-yl)amino)benzonitrile]",> 8.00
14,"COc1cccc(NC2CCN(c3ccc(-c4cn[nH]c4)c(C(F)F)c3)C2=O)c1 (single isomer, unassigned) [Example 176, 1-(3-(difluoromethyl)-4-(1H-pyrazol-4-yl)phenyl)-3-((3-methoxyphenyl)amino) pyrrolidin-2-one]",7.00 to 8.00
15,"COc1cccc(CCC2CCN(c3ccc(-c4cn[nH]c4)cc3)C2=O)c1 (stereo not shown) [Example 99, 1-(4-(1H-pyrazol-4-yl)phenyl)-3-(3-methoxyphenethyl)pyrrolidin-2-one]",7.00 to 8.00
16,"COc1cccc(NC2CCN(c3ccc(-c4cn[nH]c4)c(C)n3)C2=O)c1 (single isomer, unassigned) [Example 188, 3-((3-methoxyphenyl)amino)-1-(6-methyl-5-(1H-pyrazol-4-yl)pyridin-2-yl)pyrrolidin-2-one]",7.00 to 8.00
17,"COc1cccc([C@@H](C)NC2CCN(c3ccc(-c4cn[nH]c4)cc3)C2=O)c1 (stereo partly drawn) [Example 60, 1-(4-(1H-pyrazol-4-yl)phenyl)-3-(((R)-1-(3-methoxyphenyl)ethyl)amino)pyrrolidin-2-one, TFA]",5.66 to 7.00
18,"COc1nc(N2CCC(Nc3ccc4c(c3)OCO4)C2=O)ccc1-c1cn[nH]c1 (racemic) [Example 255, 3-(benzo[d][1,3]dioxol-5-ylamino)-1-(6-methoxy-5-(1H-pyrazol-4-yl)pyridin-2-yl)pyrrolidin-2-one]",> 8.00
19,"COc1nc(N2CCC(N3CCC(C(F)(F)F)CC3)C2=O)ccc1-c1cn[nH]c1 (racemic) [Example 285, 1-(6-methoxy-5-(1H-pyrazol-4-yl)pyridin-2-yl)-3-(4-(trifluoromethyl)piperidin-1-yl)pyrrolidin-2-one hydrochloride]",5.66 to 7.00

row,SMILES,pIC50
1,"Cc1cc(N2CCC(Nc3cccc(OCC4CC4)c3)C2=O)ncc1-c1cn[nH]c1 (single isomer, unassigned) [Example 206, 3-((3-(cyclopropylmethoxy)phenyl)amino)-1-(4-methyl-5-(1H-pyrazol-4-yl)pyridin-2-yl)pyrrolidin-2-one]",5.66 to 7.00
2,"O=C1C(Nc2cnccn2)CCN1c1ccc(-c2cn[nH]c2)cc1 (racemic) [Example 226, 1-(4-(1H-pyrazol-4-yl)phenyl)-3-(pyrazin-2-ylamino)pyrrolidin-2-one]",7.00 to 8.00
3,"COc1cccc(NC2CCN(c3ccc(-c4cn[nH]c4)cn3)C2=O)c1 (single isomer, unassigned) [Example 85, 1-(5-(1H-pyrazol-4-yl)pyridin-2-yl)-3-((3-methoxyphenyl)amino)pyrrolidin-2-one]",> 8.00
4,"O=C1[C@H](N2CCCc3ccccc32)CCN1c1ccc(-c2cn[nH]c2)cc1 [Example 394, (R)-1-(4-(1H-pyrazol-4-yl)phenyl)-3-(3,4-dihydroquinolin-1(2H)-yl)pyrrolidin-2-one]",7.00 to 8.00
5,"COc1nc(N2CCC(N3CCC(F)(F)C3)C2=O)ccc1-c1cn[nH]c1 (racemic) [Example 284, 3,3-difluoro-1′-(6-methoxy-5-(1H-pyrazol-4-yl)pyridin-2-yl)-[1,3′-bipyrrolidin]-2′-one hydrochloride]",5.66 to 7.00
6,"COc1cccc(NC2CCN(c3ccc(-c4cn[nH]c4)cc3Cl)C2=O)c1 (single isomer, unassigned) [Example 166, 1-(2-chloro-4-(1H-pyrazo1-4-yl)phenyl)-3 ((3-methoxyphenyl)amino)pyrrolidin-2-one]",5.66 to 7.00
7,"COc1nc(N2CCC(Nc3nc(C(C)(C)C)cs3)C2=O)ccc1-c1cn[nH]c1 (racemic) [Example 269, 3-((4-(tert-butyl)thiazol-2-yl)amino)-1-(6-methoxy-5-(1H-pyrazol-4-yl)pyridin-2-yl)pyrrolidin-2-one]",5.66 to 7.00
8,"COc1cc(NC2CCN(c3ccc(-c4cn[nH]c4)cc3F)C2=O)ccc1F (single isomer, unassigned) [Example 330, 3-((4-fluoro-3-methoxyphenyl)amino)-1-(2-fluoro-4-(1H-pyrazol-4-yl)phenyl) pyrrolidin-2-one]",7.00 to 8.00
9,"COc1nc(N2CCC(Nc3cccc(-c4nnn[nH]4)c3)C2=O)ccc1-c1cn[nH]c1 (racemic) [Example 266, 3-((3-(1H-tetrazol-5-yl)phenyl)amino)-1-(6-methoxy-5-(1H-pyrazol-4-yl)pyridin-2-yl)pyrrolidin-2-one]",7.00 to 8.00
10,"O=C1C(Nc2cccc(OC(F)F)c2)CCN1c1ccc(-c2cn[nH]c2)c(F)c1 (single isomer, unassigned) [Example 355, 3-((3-(difluoromethoxy)phenyl)amino)-1-(3-fluoro-4-(1H-pyrazol-4-yl)phenyl) pyrrolidin-2-one]",7.00 to 8.00
11,"O=C1C(Nc2cccc(F)c2)CCN1c1ccc(-c2cn[nH]c2)c(F)c1 (single isomer, unassigned) [Example 48, 1-(3-fluoro-4-(1H-pyrazol-4-yl)phenyl)-3-((3-fluorophenyl)amino)pyrrolidin-2-one]",7.00 to 8.00
12,"CCOc1cccc(NC2CCN(c3ccc(-c4cn[nH]c4)c(OC)c3)C2=O)c1 (single isomer, unassigned) [Example 249, 3-((3-ethoxyphenyl)amino)-1-(3-methoxy-4-(1H-pyrazol-4-yl)phenyl)pyrrolidin-2-one]",7.00 to 8.00
13,"O=C1C(Cc2ccccc2Cl)CCN1c1ccc(-c2cn[nH]c2)cc1 (stereo not shown) [Example 95, 1-(4-(1H-pyrazol-4-yl)phenyl)-3-(2-chlorobenzyl)pyrrolidin-2-one]",5.66 to 7.00
14,"COCc1cc(N2CCC(Nc3cccc(OC)c3)C2=O)ccc1-c1cn[nH]c1 (single isomer, unassigned) [Example 184, 1-(3-(methoxymethyl)-4-(1H-pyrazol-4-yl)phenyl)-3-((3-methoxyphenyl)amino) pyrrolidin-2-one]",7.00 to 8.00
15,"COc1cccc(NC2CCN(c3ccc(-c4cn[nH]c4)c(F)c3F)C2=O)c1 (single isomer, unassigned) [Example 305, 1-(2,3-difluoro-4-(1H-pyrazol-4-yl)phenyl)-3-((3-methoxyphenyl)amino) pyrrolidin-2-one]",7.00 to 8.00
16,"COc1cccc(OC2CCN(c3ccc(-c4cn[nH]c4)c(OC)n3)C2=O)c1 (single isomer, unassigned) [Example 170, 1-(6-methoxy-5-(1H-pyrazol-4-yl)pyridin 2-yl)-3-(3-methoxyphenoxy)pyrrolidin-2-one]",7.00 to 8.00
17,"COc1cccc(NC2CCN(c3ccc(-c4ccnc5[nH]ccc45)c(C)n3)C2=O)c1 (single isomer, unassigned) [Example 120, 3-((3-methoxyphenyl)amino)-1-(6-methyl-5-(1H-pyrrolo[2,3-b]pyridin-4-yl)pyridin-2-yl)pyrrolidin-2-one]",7.00 to 8.00
18,"CCOc1cccc(NC2CCN(c3ccc(-c4cn[nH]c4)cc3)C2=O)c1 (stereo not shown) [Example 6, 1-(4-(1H-pyrazol-4-yl)phenyl)-3-((3-ethoxyphenyl)amino)pyrrolidin-2-one]",> 8.00

# Source: patent publication US10112929B2, “Lactams as inhibitors of rock” (BRISTOL-MYERS SQUIBB COMPANY, priority 2015, dated 2018)
